Assay [1] is described as follows: Cytotoxicity against human 518A2 cells after 96 hrs by SRB assay. It is filed as functional, cell-based. The conditions noted are these: 518A2, 96 h. On the technique in general: In SRB staining, fixed cells bind dye roughly in proportion to their protein.
The test system of a further assay is A2780. The experiment in a line: Cytotoxicity against human A2780 cells after 96 hrs by SRB assay. Particulars: A2780, 96 h. It is filed as functional, cell-based.
The test system of the next assay is A549. The assay can be described thus: Cytotoxicity against human A549 cells after 96 hrs by SRB assay. It is filed as functional, cell-based. Particulars: A549, 96 h.
For another assay, the system named is FaDu. The experiment in a line: Cytotoxicity against human FADU cells after 96 hrs by SRB assay. It is filed as functional, cell-based.
The next assay deals with HT-29. The experiment in a line: Cytotoxicity against human HT-29 cells after 96 hrs by SRB assay. It is filed as functional, cell-based. The conditions noted are these: HT-29, 96 h.
Another assay has as its system MCF7. The assay can be described thus: Cytotoxicity against human MCF7 cells after 96 hrs by SRB assay. It is filed as functional, cell-based. Particulars: MCF7, 96 h.
A short description of assay [2]: Cytotoxicity against mouse NIH/3T3 cells after 96 hrs by SRB assay. It is filed as cell-based. Particulars: NIH3T3, 96 h.

Results on two molecules are retold here after ChEMBL document CHEMBL3751798, “Targeting cancer cells with oleanolic and ursolic acid derived hydroxamates” (Bioorg Med Chem Lett, 2016).

Each structure is given as a SMILES string.

The term EC50 denotes the concentration giving half of the maximal effect. A high value points to weaker potency.

Regarding `CC1(C)CC[C@]2(C(=O)O)CC[C@]3(C)C(=CC[C@@H]4[C@@]5(C)CC[C@H](O)C(C)(C)[C@@H]5CC[C@]43C)[C@@H]2C1` [OLEANOLIC_ACID], the EC50 in assay [1] is 64.3 µM; in the assay on A2780 it was 14 µM; in the assay on A549 it was 72.3 µM; in the assay on FaDu, 75.4 µM; in the assay on HT-29, 38.8 µM; with MCF7, 80 µM. In assay [2], this molecule displayed an EC50 of 76.4 µM.
`CC1(C)CC[C@]2(C(=O)NO)CC[C@]3(C)C(=CC[C@@H]4[C@@]5(C)CC[C@H](O)C(C)(C)[C@@H]5CC[C@]43C)[C@@H]2C1`: the EC50 amounted to 5.5 µM in assay [1]; 3.4 µM in the assay with A2780; 4.7 µM in the assay on A549; 8.2 µM in the assay with FaDu; 4.7 µM with HT-29; 8.2 µM in the assay with MCF7. In assay [2], the EC50 was 4.3 µM.
